In patent publication US8664226B2, “Compound having 3-heteroarylpyrimidin-4-(3H)-one structure and pharmaceutical preparation containing same” (Kowa Company, Ltd., priority 2009, dated 2014):

Tests used:
[1] = biological target: T1, angiotensin II type 1 receptor (Oryctolagus cuniculus, UniProt P34976); experiment: Angiotensin II antagonistic activity in isolated rabbit blood vessels; settings: angiotensin II (10 nM)-induced contraction of rabbit thoracic aorta ring
T1 construct: By using a specimen of isolated rabbit blood vessels; from tissue; host or cells: rabbit thoracic aorta ring (New Zealand White, male)
T1 sequence (P34976 1-359): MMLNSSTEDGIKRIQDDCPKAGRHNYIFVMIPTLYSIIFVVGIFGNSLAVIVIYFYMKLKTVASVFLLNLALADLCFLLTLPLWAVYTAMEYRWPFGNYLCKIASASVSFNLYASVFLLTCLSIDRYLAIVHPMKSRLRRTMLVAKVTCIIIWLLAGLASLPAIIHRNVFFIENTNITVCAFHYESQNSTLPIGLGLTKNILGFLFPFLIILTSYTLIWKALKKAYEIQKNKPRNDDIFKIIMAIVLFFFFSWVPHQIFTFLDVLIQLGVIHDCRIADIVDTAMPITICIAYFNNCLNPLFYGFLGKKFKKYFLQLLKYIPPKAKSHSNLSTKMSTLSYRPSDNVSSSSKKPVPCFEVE
Experimental: By using a specimen of isolated rabbit blood vessels, antagonistic activity of the compounds of the invention against angiotensin II type 1 receptor was estimated from a dose-response curve of angiotensin II-induced blood vessel contraction.
During the measurement, the inside temperature of the magnus bath was maintained at 37° C. and the bath was continuously ventilated with a sufficient amount of mixed gas (95% O2 and 5% CO2). The angiotensin II-induced contraction was converted into a relative value (%) that is based on the angiotensin II (10 nM)-induced contraction in the absence of the compounds of each example. From the concentration-response curve obtained therefrom, 50% inhibition concentration (IC50 value) was calculated by using SAS Preclinical Package Ver5.0 (trade name, manufactured by SAS institute Japan Co., Tokyo, Japan), which is a statistical analysis program.

human PPARγ2 = biological target: T2, human PPARγ2 (Homo sapiens, UniProt P37231); experiment: PPARγ activation activity, Gal4 chimera luciferase transfection assay using COS7 cells; type: cell-based; settings: for EC50 / Emax: COS7 cells; for EC50: Gal4-human PPARγ2 LBD chimera, luciferase reporter, 16 hours, read-out: EC50; for Emax: COS-7, 16 h, maximum activity strength relative to the maximum activity of rosiglitazone, read-out: % MAX vs Rosiglitazone
T2 construct: the amino acids 182 to 505 of human PPARγ2; expressed in transfected cells; host or cells: COS7 cells
T2 sequence (P37231 182-505): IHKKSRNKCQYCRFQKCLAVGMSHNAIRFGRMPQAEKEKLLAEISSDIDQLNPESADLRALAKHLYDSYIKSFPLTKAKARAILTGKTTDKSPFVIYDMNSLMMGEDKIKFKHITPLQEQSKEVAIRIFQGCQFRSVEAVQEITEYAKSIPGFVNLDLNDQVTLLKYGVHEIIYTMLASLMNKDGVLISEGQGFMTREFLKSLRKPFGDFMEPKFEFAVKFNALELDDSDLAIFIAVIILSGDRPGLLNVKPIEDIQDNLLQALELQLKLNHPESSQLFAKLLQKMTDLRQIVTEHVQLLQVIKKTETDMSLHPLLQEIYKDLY
T2 sequence (P04386 1-147 partner limits assumed): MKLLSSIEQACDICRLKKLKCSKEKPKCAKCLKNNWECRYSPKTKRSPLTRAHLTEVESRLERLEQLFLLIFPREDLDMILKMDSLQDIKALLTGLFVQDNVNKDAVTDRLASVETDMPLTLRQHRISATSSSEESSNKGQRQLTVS
Experimental: The agonistic activity of the compounds of the invention on PPARγ was measured based on the transfection assay using COS7 cells (DS Pharma Biomedical Co., Ltd., Osaka, Japan), which are the cell line derived from the kidney of the African green monkey. COS7 cells were cultured under 5% CO2 concentration, and DMEM medium containing 10% fetal bovine serum, glutamic acid, and antibiotics was used as a medium.
As an expression vector, a chimera in which DNA binding domain of Gal4, which is a yeast transcription factor, and ligand binding domain of human PPAR^γ2 are fused, i.e., a fused product between the amino acids 1 to 147 of Gal4 transcription factor and the amino acids 182 to 505 of human PPARγ2, was used. Furthermore, as a reporter vector, a firefly luciferase containing five copies of Gal4 recognition sequence in the promoter region was used. Plasmid transfection to the cells was performed according to a method which uses jetPEI (trade name, manufactured by Funakoshi Co., Ltd., Tokyo, Japan). Furthermore, β-galactosidase expression vector was employed as an internal standard.
After the transfection of the cells, the medium was replaced with a DMEM medium (containing 1% serum) added with the compound, and the cells were further cultured for 16 hours. After that, the luciferase activity and β-galactosidase activity in the cell lysis solution were measured.
For the present test, dimethyl sulfoxide (DMSO) was used for dissolution and dilution of the test compounds, and during the cell treatment, the DMSO concentration in DMEM medium (containing 1% serum) was adjusted to 0.1%. As a positive compound, rosiglitazone (trade name, manufactured by ALEXIS Corporation, Switzerland) was used. […] The 50% effective concentration of the test compound (EC50, 50% effect concentration) was calculated by using SAS Preclinical Package Ver5.0 (trade name, manufactured by SAS institute Japan Co., Tokyo, Japan), which is a statistical analysis program.

Structure (SMILES)	IC50 [1] [nM]	EC50 (human PPARγ2) [nM]	Emax (human PPARγ2) [%]	maximum activity compared with telmisartan (human PPARγ2; maximum PPARγ activity, telmisartan 30 to 50% of rosiglitazone under the same condition)
CCCCc1nc(C)n(-c2ncc(Br)cn2)c(=O)c1Cc1ccc(-c2ccccc2-c2nnn[nH]2)cc1 [Example 16, 5-{[2′-(1H-tetrazol-5-yl)biphenyl-4-yl]methyl}-3-(5-bromopyrimidin-2-yl)-6-butyl-2-methylpyrimidin-4 (3H)-one]	14	2410	35.5	
CCCCc1nc(C)n(-c2ncc(OCc3ccccc3)cn2)c(=O)c1Cc1ccc(-c2ccccc2-c2nnn[nH]2)cc1 [Example 19, 5-{[2′-(1H-tetrazol-5-yl)biphenyl-4-yl]methyl}-3-[5-(benzyloxy)pyrimidin-2-yl]-6-butyl-2-methylpyrimidin-4 (3H)-one]	396	2550		
CCCCc1nc(C)n(-c2ncc(OCC)cn2)c(=O)c1Cc1ccc(-c2ccccc2-c2nnn[nH]2)cc1 [Example 21, 5-{[2′-(1H-tetrazol-5-yl)biphenyl-4-yl]methyl}-6-butyl-3-(5-ethoxypyrimidin-2-yl)-2-methylpyrimidin-4 (3H)-one]	17	1590		
CCCCc1nc(C)n(-c2ncc(OCCC)cn2)c(=O)c1Cc1ccc(-c2ccccc2-c2nnn[nH]2)cc1 [Example 22, 5-{[2′-(1H-tetrazol-5-yl)biphenyl-4-yl]methyl}-6-butyl-2-methyl-3-(5-propoxypyrimidin-2-yl)pyrimidin-4 (3H)-one]	155	590	22.8	
CCCCc1nc(C)n(-c2ncc(OC(C)C)cn2)c(=O)c1Cc1ccc(-c2ccccc2-c2nnn[nH]2)cc1 [Example 23, 5-{[2′-(1H-tetrazol-5-yl)biphenyl-4-yl]methyl}-6-butyl-3-(5-isopropoxypyrimidin-2-yl)-2-methylpyrimidin-4 (3H)-one]	22	890		
CCCCOc1cnc(-n2c(C)nc(CCCC)c(Cc3ccc(-c4ccccc4-c4nnn[nH]4)cc3)c2=O)nc1 [Example 24, 5-{[2′-(1H-tetrazol-5-yl)biphenyl-4-yl]methyl}-3-(5-butoxypyrimidin-2-yl)-6-butyl-2-methylpyrimidin-4 (3H)-one]	141	860		
CCCCc1nc(C)n(-c2ncc(OCCSC)cn2)c(=O)c1Cc1ccc(-c2ccccc2-c2nnn[nH]2)cc1 [Example 26, 5-{[2′-(1H-tetrazol-5-yl)biphenyl-4-yl]methyl}-6-butyl-2-methyl-3-{5-[2-(methylthio)ethoxy]pyrimidin-2-yl}pyrimidin-4 (3H)-one]	24	3890		
CCCCc1nc(C)n(-c2ncc(OC3CCCCC3)cn2)c(=O)c1Cc1ccc(-c2ccccc2-c2nnn[nH]2)cc1 [Example 28, 5-{[2′-(1H-tetrazol-5-yl)biphenyl-4-yl]methyl}-6-butyl-3-[5-(cyclohexyloxy)pyrimidin-2-yl]-2-methylpyrimidin-4 (3H)-one]	49	1230	28.9	
CCCCc1nc(C)n(-c2ncc(OCCc3ccc(CC)cn3)cn2)c(=O)c1Cc1ccc(-c2ccccc2-c2nnn[nH]2)cc1 [Example 36, 5-{[2′-(1H-tetrazol-5-yl)biphenyl-4-yl]methyl}-6-butyl-3-{5-[2-(5-ethylpyridin-2-yl)ethoxy]pyrimidin-2-yl}-2-methylpyrimidin-4 (3H)-one]	627	3770		
CCCCc1nc(C)n(-c2ncc(OC(C(=O)O)c3ccccc3)cn2)c(=O)c1Cc1ccc(-c2ccccc2-c2nnn[nH]2)cc1 (centres unmarked) [Example 42, 2-{2-{5-{[2′-(1H-tetrazol-5-yl)biphenyl-4-yl]methyl}-4-butyl-2-methyl-6-oxopyrimidin-1(6H)-yl}pyrimidin-5-yloxy}-2-phenylacetic acid]	2.7	4220		
CCCCc1nc(C)n(-c2ncc(OCCCC(N)=O)cn2)c(=O)c1Cc1ccc(-c2ccccc2-c2nnn[nH]2)cc1 [Example 47, 4-{2-{5-{[2′-(1H-tetrazol-5-yl)biphenyl-4-yl]methyl}-4-butyl-2-methyl-6-oxopyrimidin-1(6H)-yl}pyrimidin-5-yloxy}butanamide]	2.6	80		
CCCCc1nc(C)n(-c2ncc(OCCCC(=O)NCC)cn2)c(=O)c1Cc1ccc(-c2ccccc2-c2nnn[nH]2)cc1 [Example 49, 4-{2-{5-{[2′-(1H-tetrazol-5-yl)biphenyl-4-yl]methyl}-4-butyl-2-methyl-6-oxopyrimidin-1(6H)-yl}pyrimidin-5-yloxy}-N-ethylbutanamide]	12	70		
CCCCc1nc(C)n(-c2ncc(OCCCC(=O)N(CC)CC)cn2)c(=O)c1Cc1ccc(-c2ccccc2-c2nnn[nH]2)cc1 [Example 52, 4-{2-{5-{[2′-(1H-tetrazol-5-yl)biphenyl-4-yl]methyl}-4-butyl-2-methyl-6-oxopyrimidin-1(6H)-yl}pyrimidin-5-yloxy}-N,N-diethylbutanamide]	8.3	140		
CCCCc1nc(C)n(-c2ncc(OCCCNS(=O)(=O)C(F)(F)F)cn2)c(=O)c1Cc1ccc(-c2ccccc2-c2nnn[nH]2)cc1 [Example 58, N-{3-{2-{5-{[2′-(1H-tetrazol-5-yl)biphenyl-4-yl]methyl}-4-butyl-2-methyl-6-oxopyrimidin-1 (6H)-yl}pyrimidin-5-yloxy}propyl}-1,1,1-trifluoromethane sulfonamide]	352	1910		
CCCCc1nc(C)n(-c2cc(OC)nc(OC)n2)c(=O)c1Cc1ccc(-c2ccccc2-c2nnn[nH]2)cc1 [Example 59]	13	1240		
CCCCc1nc(C)n(-c2nccs2)c(=O)c1Cc1ccc(-c2ccccc2-c2nnn[nH]2)cc1 [Example 62, 5-{[2′-(1H-tetrazol-5-yl)biphenyl-4-yl]methyl}-6-butyl-2-methyl-3-(thiazol-2-yl)pyrimidin-4 (3H)-one]	435	3390		
CCCCc1nc(C)n(-c2ccon2)c(=O)c1Cc1ccc(-c2ccccc2-c2nnn[nH]2)cc1 [Example 63, 5-{[2′-(1H-tetrazol-5-yl)biphenyl-4-yl]methyl}-6-butyl-3-(isoxazol-3-yl)-2-methylpyrimidin-4 (3H)-one]	193	3670		
CCCCc1nc(C)n(-c2ccnn2C)c(=O)c1Cc1ccc(-c2ccccc2-c2nnn[nH]2)cc1 [Example 64, 5-{[2′-(1H-tetrazol-5-yl)biphenyl-4-yl]methyl}-6-butyl-2-methyl-3-(1-methyl-1H-pyrazol-5-yl)pyrimidin-4 (3H)-one]	652	3300		
CCCCc1nc(C)n(-c2ccc3ccccc3n2)c(=O)c1Cc1ccc(-c2ccccc2-c2nnn[nH]2)cc1 [Example 66, 5-{[2′-(1H-tetrazol-5-yl)biphenyl-4-yl]methyl}-6-butyl-2-methyl-3-(quinolin-2-yl)pyrimidin-4 (3H)-one]	432	820	55.5	the same or greater than that of telmisartan
CCCCc1nc(C)n(-c2nccc3ccccc23)c(=O)c1Cc1ccc(-c2ccccc2-c2nnn[nH]2)cc1 [Example 67, 5-{[2′-(1H-tetrazol-5-yl)biphenyl-4-yl]methyl}-6-butyl-3-(isoquinolin-1-yl)-2-methylpyrimidin-4 (3H)-one]	< 10000	740		
CCCCc1nc(C)n(-c2cc3ccccc3cn2)c(=O)c1Cc1ccc(-c2ccccc2-c2nnn[nH]2)cc1 [Example 68, 5-{[2′-(1H-tetrazol-5-yl)biphenyl-4-yl]methyl}-6-butyl-3-(isoquinolin-3-yl)-2-methylpyrimidin-4 (3H)-one]	223	2610		
